Data as given in ChEMBL document CHEMBL4811286, “Novel 1,3,4-oxadiazole compounds inhibit the tyrosinase and melanin level: Synthesis, in-vitro, and in-silico studies” (Bioorg Med Chem, 2021).
Values belong to the molecule of their own block, whether it stands above or below them. Activity calls are given as the source filed them. No cut-off for these calls is given here.

Legend:
[1] = biological target: T1, Tyrosinase (Agaricus bisporus, UniProt O42713); test: Inhibition of mushroom tyrosinase using L-DOPA as substrate
T1 sequence (O42713 whole entry): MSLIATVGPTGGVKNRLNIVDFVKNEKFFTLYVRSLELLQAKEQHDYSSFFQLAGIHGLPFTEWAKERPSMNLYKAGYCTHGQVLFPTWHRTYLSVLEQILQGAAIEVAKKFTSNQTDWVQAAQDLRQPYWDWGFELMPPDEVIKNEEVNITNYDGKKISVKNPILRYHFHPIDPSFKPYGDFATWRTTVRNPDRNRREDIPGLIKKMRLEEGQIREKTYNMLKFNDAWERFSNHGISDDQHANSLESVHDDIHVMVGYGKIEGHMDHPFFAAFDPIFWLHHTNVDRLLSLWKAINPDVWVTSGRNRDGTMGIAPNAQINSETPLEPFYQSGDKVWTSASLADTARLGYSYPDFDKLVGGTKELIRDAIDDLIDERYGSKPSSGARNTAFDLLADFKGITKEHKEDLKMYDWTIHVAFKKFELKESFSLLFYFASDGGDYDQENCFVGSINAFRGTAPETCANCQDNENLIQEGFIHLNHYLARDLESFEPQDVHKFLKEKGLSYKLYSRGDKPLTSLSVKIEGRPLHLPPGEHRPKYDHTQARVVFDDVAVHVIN

[2] = Cytotoxicity against mouse B16-F10 cells assessed as cell viability at 50 ug/ml measured after 24 hrs by MTT assay relative to control; format: cell-based; conditions: at 50 µg/mL, read-out: Activity
[3] = system: B16-F10; test: Cytotoxicity against mouse B16-F10 cells assessed as reduction in cell viability upto 10 ug/ml measured after 24 hrs by MTT assay; format: cell-based; conditions: b16-f10, 24 h, dose <=10 µg/ml
[4] = system: B16-F10; test: Cytotoxicity against mouse B16-F10 cells assessed as reduction in cell viability at 10 to 50 ug/ml measured after 24 hrs by MTT assay; format: cell-based; conditions: b16-f10, 24 h, dose 10-50 µg/ml
[5] = system: B16-F10; test: Anti-melanogenic activity against alpha-MSH-induced mouse B16-F10 cells assessed as reduction in melanin content at 50 uM incubated for 24 hrs […] relative to control; format: functional
[6] = system: B16-F10; test: Anti-melanogenic activity in mouse B16-F10 cells assessed as reduction in alpha-MSH-induced tyrosinase expression at 50 uM incubated for 24 hrs by Western blot analysis; format: functional, cell-based
[7] = biological target: T1, Tyrosinase; test: Noncompetitive inhibition of mushroom tyrosinase assessed as dissociation constant using L-DOPA as substrate by Lineweaver-Burk plot analysis
[8] = system: B16-F10; test: Anti-melanogenic activity against alpha-MSH-induced mouse B16-F10 cells assessed as reduction in melanin content at 30 uM incubated for 24 hrs […] relative to control; format: functional
[9] = system: B16-F10; test: Anti-melanogenic activity against alpha-MSH-induced mouse B16-F10 cells assessed as reduction in melanin content at 10 uM incubated for 24 hrs […] relative to control; format: functional
[10] = system: B16-F10; test: Anti-melanogenic activity in mouse B16-F10 cells assessed as reduction in alpha-MSH-induced tyrosinase expression at 10 uM incubated for 24 hrs by Western blot analysis; format: functional, cell-based
[11] = system: B16-F10; test: Anti-melanogenic activity against alpha-MSH-induced mouse B16-F10 cells assessed as reduction in melanin content at 20 uM incubated for 24 hrs […] relative to control; format: functional
[12] = system: B16-F10; test: Anti-melanogenic activity in mouse B16-F10 cells assessed as reduction in alpha-MSH-induced tyrosinase expression at 20 to 30 uM incubated for 24 hrs by Western blot analysis; format: functional, cell-based; conditions: dose 20-30 µM
[13] = compound: COc1ccccc1-c1nnc(SCC(=O)Nc2ccccc2)o1; test: Noncompetitive inhibition of mushroom tyrosinase assessed as Vmax at 0.0033 uM using L-DOPA as substrate by Lineweaver-Burk plot analysis; conditions: Agaricus bisporus
[14] = compound: COc1ccccc1-c1nnc(SCC(=O)Nc2ccccc2)o1; test: Noncompetitive inhibition of mushroom tyrosinase assessed as Vmax at 0.0066 uM using L-DOPA as substrate by Lineweaver-Burk plot analysis; conditions: Agaricus bisporus
[15] = compound: COc1ccccc1-c1nnc(SCC(=O)Nc2ccccc2)o1; test: Noncompetitive inhibition of mushroom tyrosinase assessed as Km at 0.0066 uM using L-DOPA as substrate by Lineweaver-Burk plot analysis; conditions: Agaricus bisporus
[16] = compound: COc1ccccc1-c1nnc(SCC(=O)Nc2ccccc2)o1; test: Noncompetitive inhibition of mushroom tyrosinase assessed as Vmax at 0.0017 uM using L-DOPA as substrate by Lineweaver-Burk plot analysis; conditions: Agaricus bisporus
[17] = compound: COc1ccccc1-c1nnc(SCC(=O)Nc2ccccc2)o1; test: Noncompetitive inhibition of mushroom tyrosinase assessed as Km at 0.0017 uM using L-DOPA as substrate by Lineweaver-Burk plot analysis; conditions: Agaricus bisporus
[18] = compound: COc1ccccc1-c1nnc(SCC(=O)Nc2ccccc2)o1; test: Noncompetitive inhibition of mushroom tyrosinase assessed as Km at 0.0033 uM using L-DOPA as substrate by Lineweaver-Burk plot analysis; conditions: Agaricus bisporus

- IC50 [1]: 396 nM
Molecule: O=C(CSc1nnc(-c2ccccc2)o1)Nc1ccc(F)cc1

- IC50 [1]: 145 nM
Molecule: COc1cccc(-c2nnc(SCC(=O)Nc3ccc(Br)cc3)o2)c1

- IC50 [1]: 231 nM
Molecule: O=C(CSc1nnc(-c2ccccc2)o1)Nc1ccccc1

- IC50 [1]: 18 nM
Molecule: COc1ccccc1-c1nnc(SCC(=O)Nc2ccc(F)cc2)o1
- viability at 24 h, 50 ug/ml [2]: 80%

- IC50 [1]: 85 nM
Molecule: O=C(CSc1nnc(-c2ccccc2)o1)Nc1ccc(I)cc1

- IC50 [1]: 19 nM
Molecule: COc1cccc(-c2nnc(SCC(=O)Nc3ccccc3)o2)c1
- Activity [3]: Non-Toxic
- Activity [4]: Toxic

- Ki [7]: 3.1 nM
- IC50 [1]: 3 nM
Molecule: COc1ccccc1-c1nnc(SCC(=O)Nc2ccccc2)o1
- inhibition at 50 µM [5]: 78%
- Activity [6]: Active
- inhibition at 30 µM [8]: 77%
- inhibition at 10 µM [9]: 16%
- viability at 24 h, 50 ug/ml [2]: 80%
- Activity [10]: Active
- inhibition at 20 µM [11]: 62%
- Activity [12]: Active

- IC50 [1]: 39 nM
Molecule: O=C(CSc1nnc(-c2ccccc2)o1)Nc1ccc(Br)cc1

- IC50 [1]: 27 nM
Molecule: COc1cccc(-c2nnc(SCC(=O)Nc3ccc(F)cc3)o2)c1
- Activity [3]: Non-Toxic
- Activity [4]: Toxic

- IC50 [1]: 46 nM
Molecule: COc1ccccc1-c1nnc(SCC(=O)Nc2ccc(Br)cc2)o1

- IC50 [1]: 88 nM
Molecule: COc1cccc(-c2nnc(SCC(=O)Nc3ccc(I)cc3)o2)c1

- IC50 [1]: 23 nM
Molecule: COc1ccccc1-c1nnc(SCC(=O)Nc2ccc(I)cc2)o1
- viability at 24 h, 50 ug/ml [2]: 80%

B1: Tyrosinase (Agaricus bisporus), O42713 (protein)
chain: T1 sequence (O42713 whole entry)
- Vmax [13]: 3.64 deltaA/s
- Vmax [14]: 2.27 deltaA/s
- Km [15]: 250 µM
- Vmax [16]: 4.97 deltaA/s
- Km [17]: 250 µM
- Km [18]: 250 µM
